≈ marks a conversion by molar mass, not a printed value.
Assays:
Staphylococcus aureus [1] = assay: T>MIC in Staphylococcus aureus ATCC 13565 infected New Zealand white rabbit at 3 g administered drug-loaded acrylic bone cement implanted in hips exposed to 300 mW/cm2 delayed ultrasound for 12 to 24 hrs; format: ADME, organism-based; conditions: in vivo, other
Oryctolagus cuniculus [2] = assay: Effect on local hemorrhage in Staphylococcus aureus ATCC 13565 infected New Zealand white rabbit hip assessed as total volume of drainage fluid at 3 g administered drug-loaded acrylic bone cement implanted in hips treated with 300 mW/cm2 normal ultrasound for 0 to 12 hrs after surgery; format: ADME, organism-based; conditions: in vivo, other
Staphylococcus aureus [3] = assay: (§1) Antimicrobial activity against Staphylococcus aureus ATCC 13565 infected in New Zealand white rabbit assessed as reduction of bacterial count in hip aspirates at 3 g administered drug-loaded in acrylic bone cement implanted in hips treated with 300 mW/cm2 normal ultrasound for 0 to 12 hrs after surgery; format: functional
Staphylococcus aureus [4] = assay: microbe, parasite or virus in culture; conditions: ATCC 13565
Description: Antibacterial activity against Staphylococcus aureus ATCC 13565 by tube dilution method

Staphylococcus aureus [5] = assay: as §1, with “count per gram of femoral tissue” for “count in hip aspirates”, “for 12” for “for 0”, “to 24” for “to 12”; format: functional
Staphylococcus aureus [6] = assay: T>MIC in Staphylococcus aureus ATCC 13565 infected New Zealand white rabbit at 3 g administered drug-loaded acrylic bone cement implanted in hips after 48 hrs surgery without ultrasound; format: ADME, organism-based; conditions: in vivo, other
Oryctolagus cuniculus [7] = assay: Effect on local hemorrhage in Staphylococcus aureus ATCC 13565 infected New Zealand white rabbit hip assessed as total volume of drainage fluid at 3 g administered drug-loaded acrylic bone cement implanted in hips treated with 300 mW/cm2 normal ultrasound for 12 to 24 hrs after surgery; format: ADME, organism-based; conditions: in vivo, other
Staphylococcus aureus [8] = assay: T>MIC in Staphylococcus aureus ATCC 13565 infected New Zealand white rabbit at 3 g administered drug-loaded acrylic bone cement implanted in hips at 3 g exposed to 300 mW/cm2 delayed ultrasound for 0 to 12 hrs; format: ADME, organism-based; conditions: in vivo, other
Staphylococcus aureus [9] = assay: as §1, with “for 12” for “for 0”, “to 24” for “to 12”; format: functional
Staphylococcus aureus [10] = assay: as §1, with “per gram of femoral tissue” for “in hip aspirates”; format: functional

## CN[C@H](CC(C)C)C(=O)N[C@H]1C(=O)N[C@@H](CC(N)=O)C(=O)N[C@H]2C(=O)N[C@H]3C(=O)N[C@H](C(=O)N[C@H](C(=O)O)c4cc(O)cc(O)c4-c4cc3ccc4O)[C@H](O)c3ccc(c(Cl)c3)Oc3cc2cc(c3O[C@@H]2O[C@H](CO)[C@@H](O)[C@H](O)[C@H]2O[C@H]2C[C@](C)(N)[C@H](O)[C@H](C)O2)Oc2ccc(cc2Cl)[C@H]1O [VANCOMYCIN]
Staphylococcus aureus [1]
  T>MIC: 35.4 h
Oryctolagus cuniculus [2]
  Activity: 4.65 mL
Staphylococcus aureus [3]
  log10CFU/ml: 1.62
Staphylococcus aureus [4]
  MBC: 3 µg/mL (≈ 2.07 µM)
Staphylococcus aureus [5]
  log10cfu: 1.29
Staphylococcus aureus [6]
  T>MIC: 14.89 h
Oryctolagus cuniculus [7]
  Activity: 1.32 mL
Staphylococcus aureus [8]
  T>MIC: 13.59 h
Staphylococcus aureus [9]
  log10CFU/ml: 2.77
Staphylococcus aureus [10]
  log10cfu: 0.53
